Data on 1 molecule can be found in patent publication US20220062296A1, “COMBINATIONS OF GABAA ALPHA 5 AGONISTS AND SV2A INHIBITORS AND METHODS OF USING IN THE TREATMENT OF COGNITIVE IMPAIRMENT” (AGENEBIO, INC., priority 2020, published 2022).

The structures appear in SMILES notation.

Experiment [1] relates to entorhinal cortex of aMCI subjects. Kind of experiment: fMRI activity in entorhinal cortex (EC) during explicit 3-alternative forced choice task. It counts as in vivo, human. The note with it: levetiracetam 125 mg twice a day for two weeks. Here is the method:
A within-subjects trial of 8 weeks duration, involving 17 amnestic MCI (aMCI) subjects and 17 age-matched controls with a low dose treatment of levetiracetam is conducted. During the course of the study, each aMCI subject receives both drug and placebo treatments separately in two periods of two weeks each, with the order of treatments among different aMCI subjects counterbalanced (see FIG. 4). Age-matched control subjects treated with placebo serve as a further control. Cognitive testing and fMRI imaging data are obtained from the subjects after each two-week period of drug/placebo treatment. Imaging data are obtained through high-resolution methods developed in the Stark laboratory. Data are collected on a Phillips 3 Tesla scanner (Eindhoven, The Netherlands) equipped with an 8-channel SENSE (Sensitivity Encoding) head coil, located at the F.M. Kirby Research Center for Functional Brain Imaging at the Kennedy Krieger Institute (Baltimore, Md.). […] Group data are analyzed using a two-way Analysis of Variance (ANOVA) with trial types and group as fixed factors, and subject as a random factor nested within group. […] The activity of the subject's medial temporal lobe is measured by functional MRI during the subject's participation in an explicit 3-alternative forced choice task, where participants view novel, repeated and similar (“lure”) stimuli. […]

The subject of another experiment is somatostatin in DG hilus. As to the kind of experiment: Somatostatin immunohistochemistry, SOM-immunoreactive neurons in DG hilus. Type of experiment: in vivo, rat. Conditions: 10 mg/kg/day, four weeks, osmotic mini-pumps; AI-LEV vs AI-VEH p<0.01. The source says:
Tissue was labeled with anti-SOM antiserum (Santa Cruz Biotechnology; cat. no. SC7819-P) using an established immunoperoxidase protocol and tissue sections were processed concurrently to minimize inter-replication variability (Haberman et al., 2009). The anti-SOM antiserum can detect somatostatin. Briefly, sections were washed in 0.1M phosphate-buffered saline (PBS) to remove cryoprotectant, and endogenous peroxidases were quenched in 0.3% H202 in PBS. After additional PBS washes, sections were blocked in 5% normal horse serum in PBS with 0.3% Triton. Sections were then incubated with primary antibody at a dilution of 1:1600 in PBS containing 0.15% Triton and 3% normal serum for 72 hours at 4° C. with agitation. […] The secondary antibody was detected with avidin-biotin complex (ABC Elite; Vector Laboratories Inc., Burlingame, Calif.) and the avidin-biotin complex was visualized with nickel-enhanced diaminobenzadine (Vector Laboratories Inc., Burlingame, Calif.). […]
Interneuron quantification was performed using a Zeiss Axioplan 2 microscope equipped with a motorized stage. […] Neuron counts were analyzed as the total number of hilar interneurons per hippocampal section for each rat.

Take `CC[C@@H](C(N)=O)N1CCCC1=O` [levetiracetam, (2S)-2-(2-oxopyrrolidin-1-yl)butanamide]: in experiment [1], the “EC activity during memory judgments” value is “increases EC activity”. In the experiment on somatostatin in DG hilus, the “levels of somatostatin in DG hilus (SOM-immunoreactive hilar neurons)” value is on record as “restores the levels of somatostatin”.
